Literature values, collected in patent US9492489B2, “Uses of hibiscus, in particular pharmaceutical uses” (NATUREX, priority 2007, dated 2016).

Measured: antibacterial properties in vitro

O=c1c(O)c(-c2ccc(O)c(O)c2)oc2c(O)c(O)cc(O)c12 [gossypetin, 3,5,7,8,3′,4′-hexahydroxy-flavone]
antibacterial properties: Escherichia coli | Pseudomonas aeruginosa | Bacillus subtilis | Bacillus pumpilus | Staphylococcus aureus
